Reference: the NIST ThermoML archive (doi:10.1021/je060271a)

Details: 343.15 K, Liquid, Vibrating tube method

CCCCCC(=O)OCC(COC(=O)CCCCC)(COC(=O)CCCCC)COC(=O)CCCCC [pentaerythritol tetrahexanoate]
Details	mass density [kg/m3]
13093 kPa	966.8
13131 kPa	966.9
13169 kPa	966.9
13207 kPa	966.9
13245 kPa	966.9
13290 kPa	967
13328 kPa	967.2
13373 kPa	967
13409 kPa	967.1
13559 kPa	967.3
13566 kPa	967.3
13908 kPa	967.5
13933 kPa	967.3
13985 kPa	967.4
14253 kPa	967.7
14284 kPa	967.7
14335 kPa	967.9
14361 kPa	967.8
14387 kPa	967.8
14418 kPa	967.8
14469 kPa	967.9
14756 kPa	968.1
14783 kPa	968.1
14816 kPa	968.1
14843 kPa	968.2
15289 kPa	968.4
15317 kPa	968.4
15350 kPa	968.4
15379 kPa	968.4
15408 kPa	968.4
15436 kPa	968.6
15470 kPa	968.5
15498 kPa	968.6
15525 kPa	968.6
15558 kPa	968.6
15584 kPa	968.6
15615 kPa	968.6
16026 kPa	968.9
16081 kPa	968.9
16112 kPa	968.9
16138 kPa	969
16163 kPa	969
16189 kPa	969.1
16220 kPa	969
16246 kPa	969.1
16272 kPa	969
16303 kPa	969
16328 kPa	969.2
16525 kPa	969.2
16552 kPa	969.4
16584 kPa	969.3
16611 kPa	969.4
16638 kPa	969.2
16666 kPa	969.3
16699 kPa	969.4
16726 kPa	969.4
16754 kPa	969.4
16782 kPa	969.5
16815 kPa	969.5
16844 kPa	969.5
17457 kPa	970
17484 kPa	970
17516 kPa	970
17543 kPa	970
17571 kPa	970
17599 kPa	969.9
17632 kPa	970
17686 kPa	970
17714 kPa	970.1
17747 kPa	970.3
17775 kPa	970.2
17808 kPa	970.2
17836 kPa	970
17864 kPa	970.2
17898 kPa	970.1
17926 kPa	970.3
17954 kPa	970.3
17983 kPa	970.2
18017 kPa	970.3
18046 kPa	970.3
18080 kPa	970.3
18109 kPa	970.3
18137 kPa	970.4
18165 kPa	970.3
18200 kPa	970.4
18228 kPa	970.5
18261 kPa	970.5
18289 kPa	970.4
18316 kPa	970.6
18346 kPa	970.5
18370 kPa	970.6
18394 kPa	970.5
18418 kPa	970.6
18446 kPa	970.5
18471 kPa	970.6
18495 kPa	970.7
18524 kPa	970.7
18656 kPa	970.8
18681 kPa	970.8
18706 kPa	970.8
18732 kPa	970.7
18761 kPa	970.8
18787 kPa	970.9
18812 kPa	970.8
18842 kPa	970.9
18867 kPa	970.9
18923 kPa	971
18949 kPa	970.9
18975 kPa	971.1
19008 kPa	971
19034 kPa	971
19060 kPa	971.1
19085 kPa	971
19632 kPa	971.4
19654 kPa	971.4
19677 kPa	971.5
19700 kPa	971.5
19726 kPa	971.4
19747 kPa	971.4
19768 kPa	971.5
19790 kPa	971.5
19809 kPa	971.6
19830 kPa	971.5
19850 kPa	971.6
20110 kPa	971.8
20121 kPa	971.8
20124 kPa	971.8
20125 kPa	971.7
20126 kPa	971.8
20127 kPa	971.9
20128 kPa	971.8
21458 kPa	972.6
21485 kPa	972.7
21513 kPa	972.7
21545 kPa	972.7
21573 kPa	972.7
21600 kPa	972.8
21630 kPa	972.7
21654 kPa	972.8
21678 kPa	972.6
21708 kPa	972.7
21835 kPa	972.9
21865 kPa	972.9
21890 kPa	973
21915 kPa	973
